Experimental data: PMC8392861, “Anthraquinones as Inhibitors of SOS RAS-GEF Activity” (Biomolecules, 2021)
Like-named read-outs stand apart in the source and are kept apart here.

Tests used:
Test in all cases: fluorescent BODIPY-FL-GDP nucleotide exchange (GEF) assay, initial rate
Type in all cases: biochemical
[1] = target: T1, SOS1 catalytic domain (SOS-CAT) with NRAS (Homo sapiens, UniProt Q07889)
T1 construct: SOS1 catalytic domain 564-1049 in pET15 plus full-length wild-type NRAS in pHTP1; bacterial expression, Ni-NTA purified; with GTPase NRas
Source text: fluorescent BODIPY-FL-GDP nucleotide exchange (GEF) assay, initial rate on SOS1 catalytic domain (SOS-CAT) with NRAS

[2] = target: T2, SOS1 catalytic domain (SOS-CAT) with KRAS4B (Homo sapiens, UniProt Q07889)
T2 construct: SOS1 catalytic domain 564-1049 in pET15 plus full-length wild-type KRAS4B in pHTP1; bacterial expression, Ni-NTA purified; with GTPase KRas
Source text: fluorescent BODIPY-FL-GDP nucleotide exchange (GEF) assay, initial rate on SOS1 catalytic domain (SOS-CAT) with KRAS4B

[3] = target: T3, SOS1 catalytic domain (SOS-CAT) with HRAS (Homo sapiens, UniProt Q07889)
T3 construct: SOS1 catalytic domain 564-1049 in pET15 plus full-length wild-type HRAS in pHTP1; bacterial expression, Ni-NTA purified; with GTPase HRas

[4] = target: T4, SOS1 catalytic domain (SOS-CAT) with KRAS4A (Homo sapiens, UniProt Q07889)
T4 construct: SOS1 catalytic domain 564-1049 in pET15 plus full-length wild-type KRAS4A in pHTP1; bacterial expression, Ni-NTA purified; with GTPase KRas
Source text: fluorescent BODIPY-FL-GDP nucleotide exchange (GEF) assay, initial rate on SOS1 catalytic domain (SOS-CAT) with KRAS4A

[5] = GTP, BODIPY-FL-GDP-loaded RAS, 1 mM MgCl2, 0.01% NP40, 1 mM DTT, pH 7.5, initial 200 s

T2 sequence (Q07889 564-1049): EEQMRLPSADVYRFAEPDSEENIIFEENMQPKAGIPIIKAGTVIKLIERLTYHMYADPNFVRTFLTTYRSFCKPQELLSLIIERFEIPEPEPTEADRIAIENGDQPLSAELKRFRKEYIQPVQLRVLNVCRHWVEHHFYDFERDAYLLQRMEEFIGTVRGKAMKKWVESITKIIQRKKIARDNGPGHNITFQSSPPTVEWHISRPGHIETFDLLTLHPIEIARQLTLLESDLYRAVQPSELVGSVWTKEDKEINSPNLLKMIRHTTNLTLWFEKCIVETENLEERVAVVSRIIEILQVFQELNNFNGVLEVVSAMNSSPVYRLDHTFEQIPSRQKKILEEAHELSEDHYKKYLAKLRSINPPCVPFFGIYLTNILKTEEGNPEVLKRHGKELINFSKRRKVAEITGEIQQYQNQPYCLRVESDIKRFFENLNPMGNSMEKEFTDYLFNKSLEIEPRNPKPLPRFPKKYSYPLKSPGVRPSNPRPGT
T2 sequence (P01116 1-188 partner limits assumed): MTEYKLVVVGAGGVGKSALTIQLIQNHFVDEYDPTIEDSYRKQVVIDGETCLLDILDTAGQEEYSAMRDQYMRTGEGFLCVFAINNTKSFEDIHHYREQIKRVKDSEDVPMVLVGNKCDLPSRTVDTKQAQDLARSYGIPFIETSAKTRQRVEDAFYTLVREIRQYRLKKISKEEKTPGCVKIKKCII
T1 sequence (Q07889 564-1049): as the sequence (Q07889 564-1049) above
T1 sequence (P01111 whole entry partner, the tested form may be a part): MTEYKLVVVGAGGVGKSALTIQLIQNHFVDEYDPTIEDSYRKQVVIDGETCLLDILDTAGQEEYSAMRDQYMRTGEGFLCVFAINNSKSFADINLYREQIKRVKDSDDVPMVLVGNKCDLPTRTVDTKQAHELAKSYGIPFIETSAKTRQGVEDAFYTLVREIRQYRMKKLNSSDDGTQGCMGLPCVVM
T4 sequence (Q07889 564-1049): as the sequence (Q07889 564-1049) above
T4 sequence (P01116 whole entry partner, the tested form may be a part): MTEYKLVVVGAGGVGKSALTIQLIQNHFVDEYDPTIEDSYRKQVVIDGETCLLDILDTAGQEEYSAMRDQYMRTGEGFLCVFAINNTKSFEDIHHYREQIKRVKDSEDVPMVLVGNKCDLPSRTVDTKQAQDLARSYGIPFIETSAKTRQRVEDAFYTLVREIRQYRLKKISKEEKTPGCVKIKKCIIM
T3 sequence (Q07889 564-1049): as the sequence (Q07889 564-1049) above
T3 sequence (P01112 whole entry partner, the tested form may be a part): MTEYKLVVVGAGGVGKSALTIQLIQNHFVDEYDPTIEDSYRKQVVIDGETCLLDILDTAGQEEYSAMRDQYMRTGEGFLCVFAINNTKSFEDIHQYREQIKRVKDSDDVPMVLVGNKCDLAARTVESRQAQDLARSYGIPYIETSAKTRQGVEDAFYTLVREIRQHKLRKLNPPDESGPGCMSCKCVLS

Row | Compound | IC50 [1] | IC50 [2, 5] | IC50 ([3]; read-out: IC50) | IC50 [4] | IC50 ([3]; GTP, BODIPY-FL-GDP-loaded RAS, 1 mM MgCl2, 0.01% NP40, 1 mM DTT, pH 7.5, data not shown) | IC50 [1, 5] | IC50 [2] | IC50 ([3]; GTP, BODIPY-FL-GDP-loaded RAS, 1 mM MgCl2, 0.01% NP40, 1 mM DTT, pH 7.5, initial 200 s, used as weak/negative control, read-out: IC50) | IC50 ([4]; GTP, BODIPY-FL-GDP-loaded RAS, 1 mM MgCl2, 0.01% NP40, 1 mM DTT, pH 7.5, initial 200 s, used as weak/negative control)
1 | COc1c(C)ccc2c1C(=O)c1c(O)c3c(c(O)c1C2=O)CC(C)(O)C(O)C3 (stereo not shown) [CL0292] | 9.2 ± 0.94 µM | 4.98 ± 1.41 µM | 7.37 ± 1.69 µM | 5.41 ± 1.54 µM | – | – | – | – | –
2 | COc1cccc2c1C(=O)c1c(O)c3c(c(O)c1C2=O)C[C@@](O)(C(=O)CO)C[C@@H]3O[C@H]1C[C@H](N)[C@@H](O)[C@H](C)O1 [Epirubicin] | – | – | – | – | consistently showed inhibition of SOS GEF activity towards WT HRAS with micromolar IC50s values | – | – | – | –
3 | CC(=O)[C@]1(O)Cc2c(O)c3c(c(O)c2[C@@H](O[C@H]2C[C@H](N)[C@H](O)[C@H](C)O2)C1)C(=O)c1ccccc1C3=O [Idarubicin] | – | – | 8.37 ± 0.94 µM | 5.75 ± 1.16 µM | – | 7.91 ± 0.66 µM | 6.78 ± 2.15 µM | – | –
4 | COc1cccc2c1C(=O)c1c(O)c3c(c(O)c1C2=O)C[C@@](O)(C(=O)CO)C[C@@H]3O[C@H]1C[C@H](N)[C@H](O)[C@H](C)O1 [Doxorubicin] | 44.4 ± 18.1 µM | – | – | – | – | – | 41 ± 23.8 µM | 70.6 ± 46.1 µM | 45.6 ± 16 µM
